Assay results as given in PubChem BioAssay (NCI).
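Each compound was tested at five concentrations against cells in 96-well plates for 48 hours. Definition used: TGI = concentration required for complete inhibition of growth.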 Where a SMILES comes first, the peptide text is derived from it. The star is where a group is joined. Cbz = O=C(OCc1ccccc1)*

These compounds were tested on LOX IMVI melanoma (assay: DTP human tumour cell line panel, 48 h).

`O=Cc1[nH]c(=O)[nH]c(=O)c1C(=O)O` and `CC1CCC(=O)C(C(=O)CC2CC(=O)N(C)C(=O)C2)C1` (configuration not stated) cannot be ordered by TGI: greater than 100 µM for the first, greater than 100 µM for the second.

Going from `Nc1nc(SC/C=C/c2ccccc2)c2[nH]cnc2n1` to `CC(=O)c1c(C)n([O-])c2cc(Cl)c(Cl)cc2[n+]1=O`, the TGI falls from greater than 100 µM to 46.4 µM.

Compound `C/C=C(/C)C(=O)O[C@@H]1CCN2CC[C@H](COC(=O)/C(=C/C)CO)C12` (some centres not stated) has a TGI greater than 100 µM.

Each compound was assayed on M14 melanoma (assay: DTP human tumour cell line panel, 48 h).

`CN(CC(=O)O)c1ncc2c(n1)CCCC2` and `CC1CCC(=O)C(C(=O)CC2CC(=O)N(C)C(=O)C2)C1` (configuration not stated) cannot be ordered by TGI: greater than 100 µM for the first, greater than 100 µM for the second.

Going from `N#Cc1c(N)nc2n[nH]c(N)c2c1-c1ccc(Cl)cc1` to `Oc1[nH]c2ccccc2c1N=NC(=S)Nc1cccc(Cl)c1`, the TGI falls from greater than 39.8 µM to 24.7 µM.

Going from `COc1cc(NS(C)(=O)=O)ccc1Nc1c2ccccc2nc2c1[nH]c1ccc(NC3OC(CO)C(O)C(O)C3O)cc12` (configuration not stated) to `CC(=O)c1[nH]c(NCc2ccccc2)c(C(=S)Nc2ccccc2)c1N`, the TGI rises from 0.971 µM to 33.7 µM (35-fold).

`O=C(O)CCC(NC(=O)OCc1ccccc1)C(=O)NC(Cc1cnc[nH]1)C(=O)O` (stereo not drawn) (Cbz-Glu-His-OH; configuration not given here) and `NC(=O)C(C(N)=O)=C(O)C(=O)/C=C(\O)c1ccccc1` cannot be ordered by TGI: greater than 100 µM for the first, greater than 100 µM for the second.

Going from `O=[N+]([O-])/C(C(Cl)=C(Cl)Cl)=C(/Cl)Sc1ccccc1` to `Nc1nc(SC/C=C/c2ccccc2)c2[nH]cnc2n1`, the TGI rises from 3.24 µM to greater than 100 µM.

`CCOC(=O)c1nnc2c(C(=O)OCC)c3ccccc3n2c1N` and `Cc1cc(S(=O)(=O)Nc2n[nH]c(N)n2)c(SCC(=O)O)cc1Cl` cannot be ordered by TGI: greater than 100 µM for the first, greater than 10 µM for the second.

`Clc1ccc(C2C3COc4ccccc4C3=NN2c2ccccc2)cc1` (configuration not stated) and `Cn1ccc(C(=O)NCCN(CCNC(=O)c2ccn(C)c(=O)c2O)CCNC(=O)c2cccc(=O)n2O)c(O)c1=O` cannot be ordered by TGI: greater than 100 µM for the first, greater than 100 µM for the second.

`CCOC(=O)C12OC(CCC1=O)C(C(=O)OC)=C2C(=O)OC` (configuration not stated) and `C/C=C(/C)C(=O)O[C@@H]1CCN2CC[C@H](COC(=O)/C(=C/C)CO)C12` (some centres not stated) cannot be ordered by TGI: greater than 10 µM for the first, 36.3 µM for the second.

`CN1CCN(C(=S)N2CCN(C)CC2)CC1` and `CC(=O)c1c(C)n([O-])c2cc(Cl)c(Cl)cc2[n+]1=O` cannot be ordered by TGI: greater than 100 µM for the first, greater than 100 µM for the second.

With `O=Cc1[nH]c(=O)[nH]c(=O)c1C(=O)O` the TGI was greater than 100 µM.

Each compound was assayed on MCF7 breast (assay: DTP human tumour cell line panel, 48 h).

`CN(CC(=O)O)c1ncc2c(n1)CCCC2` and `CC1CCC(=O)C(C(=O)CC2CC(=O)N(C)C(=O)C2)C1` (configuration not stated) cannot be ordered by TGI: greater than 100 µM for the first, greater than 100 µM for the second.

First: N#Cc1c(N)nc2n[nH]c(N)c2c1-c1ccc(Cl)cc1
Second: Oc1[nH]c2ccccc2c1N=NC(=S)Nc1cccc(Cl)c1
The TGI of the first is lower: 19 µM for the first, greater than 100 µM for the second.

Going from `COc1cc(NS(C)(=O)=O)ccc1Nc1c2ccccc2nc2c1[nH]c1ccc(NC3OC(CO)C(O)C(O)C3O)cc12` (configuration not stated) to `CC(=O)c1[nH]c(NCc2ccccc2)c(C(=S)Nc2ccccc2)c1N`, the TGI rises from 10.1 µM to 37.2 µM (3.7-fold).

`O=C(O)CCC(NC(=O)OCc1ccccc1)C(=O)NC(Cc1cnc[nH]1)C(=O)O` (stereo not drawn) (Cbz-Glu-His-OH; configuration not given here) and `NC(=O)C(C(N)=O)=C(O)C(=O)/C=C(\O)c1ccccc1` cannot be ordered by TGI: greater than 100 µM for the first, greater than 100 µM for the second.

Going from `O=[N+]([O-])/C(C(Cl)=C(Cl)Cl)=C(/Cl)Sc1ccccc1` to `Nc1nc(SC/C=C/c2ccccc2)c2[nH]cnc2n1`, the TGI rises from 2.99 µM to greater than 100 µM.

`CCOC(=O)c1nnc2c(C(=O)OCC)c3ccccc3n2c1N` and `Cc1cc(S(=O)(=O)Nc2n[nH]c(N)n2)c(SCC(=O)O)cc1Cl` cannot be ordered by TGI: greater than 100 µM for the first, greater than 10 µM for the second.

`Clc1ccc(C2C3COc4ccccc4C3=NN2c2ccccc2)cc1` (configuration not stated) and `Cn1ccc(C(=O)NCCN(CCNC(=O)c2ccn(C)c(=O)c2O)CCNC(=O)c2cccc(=O)n2O)c(O)c1=O` cannot be ordered by TGI: greater than 100 µM for the first, greater than 100 µM for the second.

`CCOC(=O)C12OC(CCC1=O)C(C(=O)OC)=C2C(=O)OC` (configuration not stated) and `C/C=C(/C)C(=O)O[C@@H]1CCN2CC[C@H](COC(=O)/C(=C/C)CO)C12` (some centres not stated) cannot be ordered by TGI: greater than 10 µM for the first, greater than 100 µM for the second.

`CN1CCN(C(=S)N2CCN(C)CC2)CC1` and `CC(=O)c1c(C)n([O-])c2cc(Cl)c(Cl)cc2[n+]1=O` cannot be ordered by TGI: greater than 37.3 µM for the first, greater than 100 µM for the second.

Compound `O=Cc1[nH]c(=O)[nH]c(=O)c1C(=O)O` has a TGI greater than 100 µM.

What follows are compounds tested on NCI-H522 lung (assay: DTP human tumour cell line panel, 48 h).

`CN(CC(=O)O)c1ncc2c(n1)CCCC2` and `CCOC(=O)c1nnc2c(C(=O)OCC)c3ccccc3n2c1N` cannot be ordered by TGI: greater than 100 µM for the first, greater than 100 µM for the second.

First: N#Cc1c(N)nc2n[nH]c(N)c2c1-c1ccc(Cl)cc1
Second: Oc1[nH]c2ccccc2c1N=NC(=S)Nc1cccc(Cl)c1
The TGI of the first is 8.5-fold lower: 9.11 µM for the first, 77.6 µM for the second.

First: COc1cc(NS(C)(=O)=O)ccc1Nc1c2ccccc2nc2c1[nH]c1ccc(NC3OC(CO)C(O)C(O)C3O)cc12 (configuration not stated)
Second: Clc1ccc(C2C3COc4ccccc4C3=NN2c2ccccc2)cc1 (configuration not stated)
The TGI of the first is lower: 0.387 µM for the first, greater than 100 µM for the second.

Compared with `O=C(O)CCC(NC(=O)OCc1ccccc1)C(=O)NC(Cc1cnc[nH]1)C(=O)O` (stereo not drawn) (Cbz-Glu-His-OH; configuration not given here), `NC(=O)C(C(N)=O)=C(O)C(=O)/C=C(\O)c1ccccc1` is lower in TGI: greater than 100 µM for the first, 36.2 µM for the second.

`O=[N+]([O-])/C(C(Cl)=C(Cl)Cl)=C(/Cl)Sc1ccccc1` showed a TGI of 4.42 µM.
